Reference: patent publication US12303523B2, “Method for treating dupuytren's disease” (Dale Biotech, LLC, priority 2019, dated 2025)
Converted amounts (≈) assume the structure as drawn.

Legend:
physchem = assay type: physicochemical
Protocol: Niclosamide ethanolamine salt (niclosamide) was dissolved and titrated (2-fold) in methanol to generate standard curves. The linear range of niclosamide quantification using UV spectrometry (333 nm) was established to be 0.006-0.1 mM. A suspension of niclosamide was prepared in H2O at a concentration of 32.7 mg/ml (100 mM) by vigorous vortexing. A stock solution of rhamnolipids were prepared in H2O at a concentration of 400 mg/ml and diluted appropriately prior to the addition of niclosamide in the presence or absence of 20% glycerol. Niclosamide was added to a final concentration of 10 mM. The solutions were vortexed vigorously, warmed at 37° C. for 5 minutes, vortexed vigorously, and then centrifuged at 17,000 RCF for 5 minutes to remove any large particulates. The supernatant of each sample was assayed for soluble niclosamide by diluting 1:10 to 1:100 in methanol and comparing to a niclosamide standard curve.

[1] = cited from earlier work
STAT3 = STAT3 (Homo sapiens, UniProt P40763); conditions: Ren X, et al. ACS Med Chem Lett., 2010; cited from earlier work
NF-κB = conditions: in vitro experiments; cited from earlier work

Chain of STAT3 (P40763 whole entry, species assumed): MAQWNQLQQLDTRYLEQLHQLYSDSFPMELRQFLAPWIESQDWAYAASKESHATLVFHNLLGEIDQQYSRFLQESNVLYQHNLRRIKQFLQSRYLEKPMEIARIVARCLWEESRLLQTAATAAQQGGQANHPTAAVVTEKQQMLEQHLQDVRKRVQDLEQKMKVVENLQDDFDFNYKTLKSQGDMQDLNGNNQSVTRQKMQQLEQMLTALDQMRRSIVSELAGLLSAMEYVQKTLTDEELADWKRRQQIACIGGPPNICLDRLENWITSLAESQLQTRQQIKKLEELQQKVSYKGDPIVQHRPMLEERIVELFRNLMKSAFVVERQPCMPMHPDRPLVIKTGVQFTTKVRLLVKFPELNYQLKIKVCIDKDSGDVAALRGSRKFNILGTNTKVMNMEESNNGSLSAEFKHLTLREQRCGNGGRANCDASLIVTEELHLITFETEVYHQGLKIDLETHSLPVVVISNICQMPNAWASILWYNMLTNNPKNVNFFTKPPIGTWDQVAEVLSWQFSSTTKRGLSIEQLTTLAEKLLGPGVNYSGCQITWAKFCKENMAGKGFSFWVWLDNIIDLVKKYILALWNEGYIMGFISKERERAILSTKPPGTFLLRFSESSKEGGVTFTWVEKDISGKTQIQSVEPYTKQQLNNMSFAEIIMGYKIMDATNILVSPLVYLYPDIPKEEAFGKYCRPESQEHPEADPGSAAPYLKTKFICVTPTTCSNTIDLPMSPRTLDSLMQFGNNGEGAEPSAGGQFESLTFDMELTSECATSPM

Structure (SMILES)	solubility at 5 min (physchem; 37 °C, water, thermodynamic from solid, Soluble Niclosamide mM, ±SD)	solubility in distilled water ([1]; distilled water, 20° C.)	increase of solubility (physchem; 5 min)	solubility in DMSO ([1]; DMSO)	solubility in ethanol ([1]; ethanol)	solubility in organic solvents ([1]; ether, ethanol, chloroform, acetone and DMSO)	water solubility ([1]; water, 20° C.)	inhibition of activation and transcriptional function of STAT3 (STAT3)	inhibition of NF-κB transcription, DNA binding, TNF-induced IκBα phosphorylation, p65 translocation, downstream gene expression (NF-κB)
O=C(Nc1ccc([N+](=O)[O-])cc1Cl)c1cc(Cl)ccc1O [Niclosamide ethanolamine, niclosamide ethanolamine]	1.06 ± 0.053 mM (≈ 347 µg/mL)	180 to 280 µg/mL							
O=C(Nc1ccc([N+](=O)[O-])cc1Cl)c1cc(Cl)ccc1O [Niclosamide]			more than 3 fold	up to 10 mM	22000 µM (≈ 7200 µg/mL)	sparingly soluble	5 to 8 µg/mL	potently inhibits	inhibits
